Data: US20220242851A1, “CRYSTAL FORM AND SALT OF QUINAZOLINE COMPOUND AND PREPARATION METHOD THEREOF” (SHENZHEN JINRUI FOUNDATION BIOTECH CO., LTD, priority 2019, published 2022)

Key:
HER1(ErbB1) = HER1(ErbB1) (Homo sapiens, UniProt P00533); assay: In vitro enzyme activity, HER1 (radiometric, Eurofins); format: biochemical; conditions: conclusion
Protocol: (§1) The purpose of this assay is to detect the in vitro inhibitory activity of compounds on HER1(ErbB1), HER2(ErbB2), and HER4(ErbB4). The enzymes used in this assay are human ErbB 1, ErbB2 and ErbB4. Eurofins Pharma Discovery Service provided the method for activity detection. Steps and method of the assay (96-well plate): A buffer solution of the assay compounds in a dilution of 5-fold (5 μL), polypeptide substrate poly(Glu, Tyr) (4:1) (2.5 μL), ErbB (4-20 ng, 2.5 μL), MnCl2 (50 mM, 1.25 μL), dH2O (3.75 μL), and [γ-^33P]ATP (10 μL) were added, and incubated at 30° C. for 10 minutes. The reaction was terminated by adding 3% phosphoric acid. 10 μL of the sample was taken and transferred to Filtermate A. The filter disc was washed 3 times with 75 mM phosphoric acid and once with methanol. The filter disc was transferred to a sealed plastic bag and the scintillation mixture (4 mL) was added. The intensity of the emitted photon was detected by a scintillation luminescence counter. The CPM (times/min) of the enzyme sample was compared with the CPM of the internal control sample. The level of photon intensity reflected the degree of the tyrosine kinase activity.

CYP2C19 = molecular target: T1, CYP2C19 (Homo sapiens, UniProt P33261); assay: Inhibition of CYP enzyme activity in human liver microsome, CYP2C19; format: in vitro ADME
T1 construct: in the assay of CYP enzyme activity in human liver microsome; from tissue; host or cells: human liver microsome
T1 sequence (P33261 whole entry): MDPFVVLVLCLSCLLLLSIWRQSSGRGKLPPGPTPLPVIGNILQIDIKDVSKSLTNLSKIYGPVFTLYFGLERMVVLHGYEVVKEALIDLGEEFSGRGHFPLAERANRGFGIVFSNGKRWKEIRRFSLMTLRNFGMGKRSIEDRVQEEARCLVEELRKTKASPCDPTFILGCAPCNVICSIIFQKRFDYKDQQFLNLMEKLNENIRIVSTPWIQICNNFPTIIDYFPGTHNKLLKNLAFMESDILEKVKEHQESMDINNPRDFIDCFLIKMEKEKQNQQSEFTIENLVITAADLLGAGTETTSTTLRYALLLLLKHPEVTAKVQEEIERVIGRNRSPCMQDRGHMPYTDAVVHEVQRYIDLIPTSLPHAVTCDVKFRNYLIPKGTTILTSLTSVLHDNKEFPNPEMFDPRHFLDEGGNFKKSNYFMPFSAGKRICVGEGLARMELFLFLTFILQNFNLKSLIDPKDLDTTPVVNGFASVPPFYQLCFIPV
From the text: (§2) The results of the compound disclosed herein and the reference compound Poziotinib in the assay of CYP enzyme activity in human liver microsome were shown in the following table (Table 17).

Pharmacokinetics in mice = format: in vivo, mouse
Protocol: Purpose of the assay: this assay aimed to investigate in vivo plasma pharmacokinetics of the example compound disclosed herein and the reference compound in female BALB/c mice after the single intravenous injection and intragastric administration thereof.
Animals of the assay: female BALB/c nude mice, 7-9 weeks old, weighted 17-23 grams; supplier: shanghai sippr bk laboratory animals Ltd.
Sample collection: at each time point, a 0.03 mL blood sample was collected from the saphenous vein of the assay animal by puncture, and the actual blood collection time was recorded. All blood samples were added into commercial EDTA-K2 anticoagulation tubes with a specification of 1.5 mL (the supplier was Jiangsu KANGJIAN Medical Apparatus Co., Ltd.). Within half an hour after the blood sample was collected, the blood sample was centrifuged at 3000 g at 4° C. for 10 minutes, and the supernatant plasma was drawn, quickly placed in dry ice, and stored in a refrigerator at −80° C. for LC-MS/MS analysis.
Data analysis: Plasma concentrations were processed using a non-compartmental model of WinNonlin™Version6.3 (Pharsight, MountainView, Calif.) pharmacokinetic software, and pharmacokinetic parameters Cmax, Tmax, T1/2, and AUC0-last were calculated using a linear log trapezoid method.

HER4(ErbB4) = HER4(ErbB4) (Homo sapiens, UniProt Q15303); assay: In vitro enzyme activity, HER4 (radiometric, Eurofins); format: biochemical; conditions: conclusion
Sequence of HER4(ErbB4) (Q15303 26-1308): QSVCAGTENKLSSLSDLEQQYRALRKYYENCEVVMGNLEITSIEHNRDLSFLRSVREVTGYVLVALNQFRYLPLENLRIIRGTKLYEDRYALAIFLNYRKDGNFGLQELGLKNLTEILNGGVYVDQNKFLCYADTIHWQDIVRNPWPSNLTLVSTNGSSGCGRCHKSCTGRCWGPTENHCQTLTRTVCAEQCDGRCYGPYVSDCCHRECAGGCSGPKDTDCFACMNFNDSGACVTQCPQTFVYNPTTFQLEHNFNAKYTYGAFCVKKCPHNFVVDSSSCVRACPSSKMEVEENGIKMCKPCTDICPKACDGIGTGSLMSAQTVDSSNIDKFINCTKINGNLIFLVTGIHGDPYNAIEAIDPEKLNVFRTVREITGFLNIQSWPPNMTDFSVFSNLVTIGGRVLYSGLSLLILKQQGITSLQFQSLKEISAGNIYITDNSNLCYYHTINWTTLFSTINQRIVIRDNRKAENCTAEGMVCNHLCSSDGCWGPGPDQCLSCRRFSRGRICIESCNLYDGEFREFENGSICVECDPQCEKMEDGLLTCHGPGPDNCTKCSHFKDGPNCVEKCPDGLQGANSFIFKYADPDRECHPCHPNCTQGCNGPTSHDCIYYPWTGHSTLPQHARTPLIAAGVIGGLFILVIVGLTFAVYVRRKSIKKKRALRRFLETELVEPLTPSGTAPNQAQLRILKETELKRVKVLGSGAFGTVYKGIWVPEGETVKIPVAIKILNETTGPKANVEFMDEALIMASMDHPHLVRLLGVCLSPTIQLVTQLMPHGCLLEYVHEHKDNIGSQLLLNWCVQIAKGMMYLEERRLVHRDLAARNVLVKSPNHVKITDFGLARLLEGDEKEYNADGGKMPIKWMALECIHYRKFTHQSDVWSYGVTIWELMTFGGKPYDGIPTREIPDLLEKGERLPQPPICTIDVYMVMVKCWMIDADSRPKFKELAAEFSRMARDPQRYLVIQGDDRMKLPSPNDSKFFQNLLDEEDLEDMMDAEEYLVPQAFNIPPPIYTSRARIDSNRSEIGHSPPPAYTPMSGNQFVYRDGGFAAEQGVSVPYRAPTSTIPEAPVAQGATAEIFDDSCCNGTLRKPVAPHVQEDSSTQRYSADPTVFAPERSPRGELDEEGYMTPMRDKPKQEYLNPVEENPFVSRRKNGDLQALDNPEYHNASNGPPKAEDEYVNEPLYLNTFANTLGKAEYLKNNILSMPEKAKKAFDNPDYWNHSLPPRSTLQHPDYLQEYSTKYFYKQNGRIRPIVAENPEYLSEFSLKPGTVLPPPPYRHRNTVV
Protocol: as §1

[1] = system: subcutaneous xenograft tumor of human esophageal carcinoma OE21 cells; assay: In vivo pharmacodynamics, OE21 subcutaneous xenograft (Assay Example 5); parameters: species or system mouse
Protocol: Purpose of the assay: in vivo efficacy of the assay compound on subcutaneous xenograft tumor of human esophageal carcinoma OE21 cells in a BALB/c nude mouse model was evaluated.
Animals of the assay: female BALB/c nude mice, 6-8 weeks old, weighted 17-23 grams; supplier: shanghai sippr bk laboratory animals Ltd.
Human esophageal carcinoma OE21 cells were cultured in monolayer in vitro. The culture conditions were RPMI-1640 medium plus 10% fetal bovine serum, 100 U/mL penicillin, 100 U/mL streptomycin and 2 mM glutamine, 37° C., 5% CO2. The passaging was performed by conventional digestion with trypsin-EDTA twice a week. When the cell saturation was 80%-90%, the cells were collected, counted and inoculated.
0.1 ml […] OE21 cells (PBS) were inoculated subcutaneously on the right back of each mouse. When the average tumor volume reached 112 mm^3, administration to each group was started.
The assay compound was formulated into a 0.15 mg/mL to 0.3 mg/mL clear or suspension solution in the solvents of 10% NMP+10% ethylene glycol stearate+80% water.
The assay index was to investigate whether tumor growth is inhibited, delayed or cured. Tumor diameter was measured twice a week with vernier caliper. The calculation formula of tumor volume was: V=0.5a×b^2, wherein a and b represent the long and short diameters of tumor, respectively.
The antitumor efficacy of the compounds was evaluated by TGI (%) or relative tumor proliferation rate T/C (%). TGI (%) reflects the tumor growth inhibition rate. TGI (%) was calculated as follows: TGI (%)=[(1−average tumor volume at the end of administration for a certain treatment group−average tumor volume at the beginning of administration for this treatment group))/(average tumor volume at the end of treatment for a vehicle control group−average tumor volume at the beginning of administration for this vehicle control group)]×100%.
Relative tumor proliferation rate T/C (%): the calculation formula was as follows: T/C (%)=average tumor volume at the end of administration for a certain treatment group/average tumor volume at the end of treatment for the vehicle control group×100%.
Statistical analysis included the mean and standard error of mean (SEM) of tumor volume at each time point in each group. One-way ANOVA was used for comparison among three or more groups. […] SPSS 17.0 was used for all data analysis. p<0.05 was considered a significant difference.

CYP2D6 = molecular target: T2, CYP2D6 (Homo sapiens, UniProt P10635); assay: Inhibition of CYP enzyme activity in human liver microsome, CYP2D6; format: in vitro ADME; conditions: versus Poziotinib
T2 construct: in the assay of CYP enzyme activity in human liver microsome; from tissue; host or cells: human liver microsome
T2 sequence (P10635 whole entry): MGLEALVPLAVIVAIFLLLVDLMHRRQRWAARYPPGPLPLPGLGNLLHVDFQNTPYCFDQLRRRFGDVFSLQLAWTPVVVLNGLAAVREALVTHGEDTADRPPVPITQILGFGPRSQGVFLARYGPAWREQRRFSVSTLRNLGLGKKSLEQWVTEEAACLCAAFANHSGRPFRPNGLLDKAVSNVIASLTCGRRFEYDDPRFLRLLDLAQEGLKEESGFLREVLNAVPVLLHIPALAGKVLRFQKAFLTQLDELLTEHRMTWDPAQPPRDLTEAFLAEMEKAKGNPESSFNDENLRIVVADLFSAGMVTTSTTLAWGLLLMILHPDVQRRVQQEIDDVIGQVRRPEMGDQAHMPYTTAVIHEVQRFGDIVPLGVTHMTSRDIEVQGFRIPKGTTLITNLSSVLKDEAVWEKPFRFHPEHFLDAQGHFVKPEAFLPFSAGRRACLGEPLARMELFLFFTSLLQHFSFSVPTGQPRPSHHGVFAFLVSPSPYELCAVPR
From the text: as §2

CYP3A4 = molecular target: T3, CYP3A4 (Homo sapiens, UniProt P08684); assay: Inhibition of CYP enzyme activity in human liver microsome, CYP3A4; format: in vitro ADME
T3 construct: in the assay of CYP enzyme activity in human liver microsome; from tissue; host or cells: human liver microsome
T3 sequence (P08684 whole entry): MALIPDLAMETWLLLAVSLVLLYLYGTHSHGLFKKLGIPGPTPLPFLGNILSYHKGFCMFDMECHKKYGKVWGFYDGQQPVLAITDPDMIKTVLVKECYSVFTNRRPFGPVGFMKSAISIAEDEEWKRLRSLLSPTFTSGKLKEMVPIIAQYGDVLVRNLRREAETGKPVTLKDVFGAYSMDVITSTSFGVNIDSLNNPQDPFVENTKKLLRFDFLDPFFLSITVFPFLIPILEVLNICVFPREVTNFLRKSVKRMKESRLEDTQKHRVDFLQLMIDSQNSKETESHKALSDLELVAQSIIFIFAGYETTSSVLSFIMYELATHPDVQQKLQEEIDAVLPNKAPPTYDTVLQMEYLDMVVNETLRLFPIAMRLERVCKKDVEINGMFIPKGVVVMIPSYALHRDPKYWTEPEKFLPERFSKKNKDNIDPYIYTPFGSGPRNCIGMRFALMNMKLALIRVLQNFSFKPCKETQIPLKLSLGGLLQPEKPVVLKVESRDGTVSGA
From the text: as §2

Sequence of HER1(ErbB1) (P00533 25-1210): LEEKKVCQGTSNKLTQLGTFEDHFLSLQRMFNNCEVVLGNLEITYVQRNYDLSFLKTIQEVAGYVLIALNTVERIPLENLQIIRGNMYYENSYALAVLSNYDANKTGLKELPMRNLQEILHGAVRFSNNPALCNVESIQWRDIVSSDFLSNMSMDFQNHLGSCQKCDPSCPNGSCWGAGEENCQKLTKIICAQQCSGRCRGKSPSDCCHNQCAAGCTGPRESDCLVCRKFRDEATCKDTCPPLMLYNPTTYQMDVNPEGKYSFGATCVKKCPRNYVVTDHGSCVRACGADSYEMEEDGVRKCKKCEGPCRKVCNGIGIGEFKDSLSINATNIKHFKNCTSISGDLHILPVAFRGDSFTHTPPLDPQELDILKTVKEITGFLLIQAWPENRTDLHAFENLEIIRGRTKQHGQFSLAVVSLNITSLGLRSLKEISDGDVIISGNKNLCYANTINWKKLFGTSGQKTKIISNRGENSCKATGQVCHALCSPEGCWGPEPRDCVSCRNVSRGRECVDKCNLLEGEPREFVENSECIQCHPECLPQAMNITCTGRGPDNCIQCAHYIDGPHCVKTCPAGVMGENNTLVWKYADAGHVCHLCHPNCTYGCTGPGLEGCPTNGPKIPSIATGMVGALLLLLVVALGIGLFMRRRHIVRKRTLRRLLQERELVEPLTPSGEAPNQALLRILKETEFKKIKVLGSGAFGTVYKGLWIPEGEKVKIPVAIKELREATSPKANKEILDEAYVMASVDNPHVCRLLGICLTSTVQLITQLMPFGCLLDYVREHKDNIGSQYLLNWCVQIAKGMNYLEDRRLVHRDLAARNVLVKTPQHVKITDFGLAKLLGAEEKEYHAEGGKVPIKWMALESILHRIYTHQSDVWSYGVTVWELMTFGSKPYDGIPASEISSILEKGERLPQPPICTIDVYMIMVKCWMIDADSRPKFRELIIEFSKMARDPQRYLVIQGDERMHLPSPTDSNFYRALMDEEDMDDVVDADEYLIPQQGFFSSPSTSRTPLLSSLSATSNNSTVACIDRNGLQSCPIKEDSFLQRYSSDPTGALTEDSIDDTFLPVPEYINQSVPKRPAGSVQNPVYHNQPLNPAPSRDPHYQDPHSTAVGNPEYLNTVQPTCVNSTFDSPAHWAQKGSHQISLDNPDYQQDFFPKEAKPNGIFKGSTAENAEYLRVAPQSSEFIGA

For `C=CC(=O)N1[C@@H]2CC[C@H]1C[C@H](Nc1cc3c(Nc4ccc(Cl)c(Cl)c4F)ncnc3cc1OC)C2` [Compound of formula (I)], the “inhibitory activity on HER1 (in words)” value (HER1(ErbB1)) was “significant inhibitory activity”, the “inhibitory activity on CYP2C19 compared with Poziotinib (in words)” value (CYP2C19) was “comparable to that of the reference compound Poziotinib” and the “half-life compared with reference (in words)” value (Pharmacokinetics in mice) was “longer half-life than that of the reference compound”. The “oral plasma exposure compared with Poziotinib and control compound 2 (in words)” value (Pharmacokinetics in mice) was “significantly better oral plasma exposure”, the “inhibitory activity on HER4 (in words)” value (HER4(ErbB4)) was “significant inhibitory activity” and the “body weight and clinical signs (in words)” value ([1]; 2/1.5 mg/kg) was “varying degrees of body weight loss and dandruff”. The “tumor inhibitory effect (in words)” value ([1]; 2/1.5 mg/kg, compared with the vehicle control group) was “significant tumor inhibitory effect”, the “Tumor volume (Day 21)” value ([1]; 2/1.5 mg/kg, Day 21, Mean + SEM) was 55 ± 13 mm3 and the “effect on the body weight of mice (in words)” value ([1]; discussion, high-dose group) was “little effect on the body weight of mice”. The “efficacy at low dose (in words)” value ([1]; low dose of 0.5 mpk) was “comparable to that of the reference compound Poziotnib and the compound of formula (I) at a high dose of 1.5 mpk”, the “dark yellow urine, suggestion of toxicity (in words)” value ([1]; mouse, in vivo) was “without the toxicity suggestion of dark yellow urine” and the “activity on CYP2D6, times better than the reference compound” value (CYP2D6) was 6 times. For the same compound, the “inhibitory activity on CYP3A4 (in words)” value (CYP3A4) was “no inhibitory activity”.
